In patent US20090281090A1, “BIOMARKERS FOR THE PREDICTION OF RESPONSIVENESS TO CLOZAPINE TREATMENT” (NOVARTIS AG, priority 2004, published 2009):

What was measured:
[1] = system: patients with schizophrenia or schizoaffective disorders; assay: InterSePT pharmacogenetic analysis: DAT1 3'UTR VNTR polymorphism vs Type 1 event / drug response; type: in vivo, human; details: for Adjusted Hazard Ratio (95% CI), association between VNTR polymorphism and Type 1 event: Cox model adjusted for age, gender, substance abuse, lifetime suicide attempts; for Unadjusted Hazard Ratio (95% CI), association between VNTR polymorphism and Type 1 event: Cox proportional hazards model
Protocol: Association between a VNTR polymorphism in the 3′UTR region of the DAT1 gene and clozapine response. The objective of this EXAMPLE was to evaluate potential association between a VNTR polymorphism in the 3′UTR region of the Dopamine Transporter 1 gene (SLC6A3; DAT1) and drug response in the patients with schizophrenia or schizoaffective disorders treated with clozapine.
A retrospective pharmacogenetic analysis was conducted in an attempt to evaluate potential association between a variable number of tandem repeats (VNTR) polymorphism in the 3′UTR region of the DAT1 gene and drug response in the patients with schizophrenia or schizoaffective disorders treated with clozapine.
A multicenter, randomized, two-year study comparing the risk for suicidal behaviour in patients treated with clozapine vs olanzapine had already been conducted in patients with schizophrenia or schizoaffective disorders (see above). […] See, published PCT patent application WO 2004/074513.
Genotyping. Four hundred and two samples from the patients enrolled in the InterSePT study (see above) were collected and genotyped for the VNTR polymorphism. A total of 402 subjects enrolled in the InterSePT study consented to Pharmacogenetics study in accordance with protocols approved by local ethics committees. 15 ml of blood were collected from the patients at the trial sites. The DNA was extracted by Covance (Indianapolis, USA) using the PUREGENE™ DNA Isolation Kit (D50K) according to the manufacturer's recommendations. VNTR genotyping was performed using PCR approach as described by Kidd (Kidd Laboratory, http://info.med.yale.edu/genetics/kkidd/SLC6A3—3VNTR.html). The sense and antisense PCR primers were 5′-GGTGTAGGGAACGGCCTGAGAG-3′ (SEQ ID NO:3) and 5′-CTTCCTGGAGGTCACGGCTCAAGG-3′ (SEQ ID NO:4), respectively. Approximately 100-200 ng of genomic DNA was needed for each assay. Thirty cycles of PCR were performed with the condition of 94° C. (30″), 62° C. (30″) and 72° C. (30″). PCR products were analyzed using 2% agarose gel.
Clinical assessments. For the primary efficacy variable, time (in days, after randomization) to meeting any one of the following two criteria: (a) a significant suicide attempt; and (b) hospitalization due to imminent suicide risk. Type 1 Event is defined as combination of above two items. For secondary efficacy variables, the following were determined: (a) percentage of subjects with significant suicide attempts; (b) percentage of subjects with hospitalization due to imminent suicide risk; (c) change from baseline in the total score of the Positive and Negative Syndrome Scale (PANSS); (d) change from baseline in the Positive subtotal of PANSS; and (e) change from baseline in the Negative subtotal of PANSS.
Statistic analysis. The SAS Version 8.2 for Windows package was used for statistical analysis. The continuous and dischotomous variables in demographic differences between the genotype groups were compared using non-parametric ANOVA and Fisher's exact test, respectively. The differential effects of genotypes on the time to Type 1 event were evaluated using log rank test. Age, gender, substance abuse, and lifetime suicide attempts were adjusted in further analysis using the Cox proportional hazards model.

[2] = system: patients with schizophrenia or schizoaffective disorders; assay: as above; type: in vivo, human
[3] = All with schizoaffective disorder, genotype L/L (10≦/10≦)
[4] = All with schizoaffective disorder, genotype S/L (10≦/9≧)
[5] = All with schizoaffective disorder, genotype S/S (9≧/9≧)
[6] = All with schizophrenia, genotype L/L (10≦/10≦)
[7] = All with schizophrenia, genotype S/L (10≦/9≧)
[8] = All with schizophrenia, genotype S/S (9≧/9≧)
[9] = Caucasian, VNTR genotype 9≧/9≧, end of study
[10] = Caucasian, VNTR genotype 10≦/9≧, end of study
[11] = Caucasian, VNTR genotype 10≦/10≦, end of study
[12] = Caucasians with schizoaffective disorder, genotype L/L (10≦/10≦)
[13] = Caucasians with schizoaffective disorder, genotype S/L (10≦/9≧)
[14] = Caucasians with schizoaffective disorder, genotype S/S (9≧/9≧)
[15] = Caucasians with schizophrenia, genotype L/L (10≦/10≦)
[16] = Caucasians with schizophrenia, genotype S/L (10≦/9≧)
[17] = Caucasians with schizophrenia, genotype S/S (9≧/9≧)
[18] = Whole race group, VNTR genotype 9≧/9≧, end of study
[19] = Whole race group, VNTR genotype 10≦/9≧, end of study
[20] = Whole race group, VNTR genotype 10≦/10≦, end of study

Cc1cc2c(s1)Nc1ccccc1N=C2N1CCN(C)CC1 [Olanzapine, olanzapine]
End point Type 1 event: No [1, 3]: 22 (60%) numbers of subjects (%)
End point Type 1 event: Yes [1, 3]: 15 (40%) numbers of subjects (%)
End point Type 1 event: No [1, 4]: 22 (67%) numbers of subjects (%)
End point Type 1 event: Yes [1, 4]: 11 (33%) numbers of subjects (%)
End point Type 1 event: No [1, 5]: 4 (57%) numbers of subjects (%)
End point Type 1 event: Yes [1, 5]: 3 (43%) numbers of subjects (%)
End point Type 1 event: No [1, 6]: 50 (82%) numbers of subjects (%)
End point Type 1 event: Yes [1, 6]: 11 (18%) numbers of subjects (%)
End point Type 1 event: No [1, 7]: 32 (76%) numbers of subjects (%)
End point Type 1 event: Yes [1, 7]: 10 (24%) numbers of subjects (%)
End point Type 1 event: No [1, 8]: 8 (80%) numbers of subjects (%)
End point Type 1 event: Yes [1, 8]: 2 (20%) numbers of subjects (%)
End point Type 1 event: No [1, 9]: 6 (60%) numbers of subjects (%)
End point Type 1 event: Yes [1, 9]: 4 (40%) numbers of subjects (%)
End point Type 1 event: No [1, 10]: 45 (76%) numbers of subjects (%)
End point Type 1 event: Yes [1, 10]: 14 (24%) numbers of subjects (%)
End point Type 1 event: No [1, 11]: 59 (76%) numbers of subjects (%)
End point Type 1 event: Yes [1, 11]: 19 (24%) numbers of subjects (%)
End point Type 1 event: No [1, 12]: 22 (67%) numbers of subjects (%)
End point Type 1 event: Yes [1, 12]: 11 (33%) numbers of subjects (%)
End point Type 1 event: No [1, 13]: 21 (75%) numbers of subjects (%)
End point Type 1 event: Yes [1, 13]: 7 (25%) numbers of subjects (%)
End point Type 1 event: No [1, 14]: 3 (50%) numbers of subjects (%)
End point Type 1 event: Yes [1, 14]: 3 (50%) numbers of subjects (%)
End point Type 1 event: No [1, 15]: 37 (82%) numbers of subjects (%)
End point Type 1 event: Yes [1, 15]: 8 (18%) numbers of subjects (%)
End point Type 1 event: No [1, 16]: 24 (77%) numbers of subjects (%)
End point Type 1 event: Yes [1, 16]: 7 (23%) numbers of subjects (%)
End point Type 1 event: No [1, 17]: 3 (75%) numbers of subjects (%)
End point Type 1 event: Yes [1, 17]: 1 (25%) numbers of subjects (%)
Adjusted Hazard Ratio (95% CI), association between VNTR polymorphism and Type 1 event ([1]; Caucasians): 0.542 (0.185-1.590)
Unadjusted Hazard Ratio (95% CI), association between VNTR polymorphism and Type 1 event ([1]; Caucasians): 0.548 (0.194-1.547)
End point Type 1 event: No [1, 18]: 12 (71%) numbers of subjects (%)
End point Type 1 event: Yes [1, 18]: 5 (29%) numbers of subjects (%)
End point Type 1 event: No [1, 19]: 54 (72%) numbers of subjects (%)
End point Type 1 event: Yes [1, 19]: 21 (28%) numbers of subjects (%)
End point Type 1 event: No [1, 20]: 72 (73%) numbers of subjects (%)
End point Type 1 event: Yes [1, 20]: 26 (27%) numbers of subjects (%)
Adjusted Hazard Ratio (95% CI), association between VNTR polymorphism and Type 1 event ([1]; whole population): 0.824 (0.317-2.138)
Unadjusted Hazard Ratio (95% CI), association between VNTR polymorphism and Type 1 event ([1]; whole population): 0.886 (0.353-2.225)

CN1CCN(C2=Nc3cc(Cl)ccc3Nc3ccccc32)CC1 [Clozapine, 8-chloro-11-(4-methyl-1-piperazinyl)-5H-dibenzo[be][1,4]diazepine]
End point Type 1 event: No [1, 3]: 30 (75%) numbers of subjects (%)
End point Type 1 event: Yes [1, 3]: 10 (25%) numbers of subjects (%)
End point Type 1 event: No [1, 4]: 25 (83%) numbers of subjects (%)
End point Type 1 event: Yes [1, 4]: 5 (17%) numbers of subjects (%)
End point Type 1 event: No [1, 5]: 7 (70%) numbers of subjects (%)
End point Type 1 event: Yes [1, 5]: 3 (30%) numbers of subjects (%)
End point Type 1 event: No [1, 6]: 53 (87%) numbers of subjects (%)
End point Type 1 event: Yes [1, 6]: 8 (13%) numbers of subjects (%)
End point Type 1 event: No [1, 7]: 35 (87%) numbers of subjects (%)
End point Type 1 event: Yes [1, 7]: 5 (13%) numbers of subjects (%)
End point Type 1 event: No [1, 8]: 4 (50%) numbers of subjects (%)
End point Type 1 event: Yes [1, 8]: 4 (50%) numbers of subjects (%)
End point Type 1 event: No [1, 9]: 9 (56%) numbers of subjects (%)
End point Type 1 event: Yes [1, 9]: 7 (44%) numbers of subjects (%)
End point Type 1 event: No [1, 10]: 45 (85%) numbers of subjects (%)
End point Type 1 event: Yes [1, 10]: 8 (15%) numbers of subjects (%)
End point Type 1 event: No [1, 11]: 67 (83%) numbers of subjects (%)
End point Type 1 event: Yes [1, 11]: 14 (17%) numbers of subjects (%)
End point Type 1 event: No [1, 12]: 28 (76%) numbers of subjects (%)
End point Type 1 event: Yes [1, 12]: 9 (24%) numbers of subjects (%)
End point Type 1 event: No [1, 13]: 22 (85%) numbers of subjects (%)
End point Type 1 event: Yes [1, 13]: 4 (15%) numbers of subjects (%)
End point Type 1 event: No [1, 14]: 7 (70%) numbers of subjects (%)
End point Type 1 event: Yes [1, 14]: 3 (30%) numbers of subjects (%)
End point Type 1 event: No [1, 15]: 39 (89%) numbers of subjects (%)
End point Type 1 event: Yes [1, 15]: 5 (11%) numbers of subjects (%)
End point Type 1 event: No [1, 16]: 23 (85%) numbers of subjects (%)
End point Type 1 event: Yes [1, 16]: 4 (15%) numbers of subjects (%)
End point Type 1 event: No [1, 17]: 2 (33%) numbers of subjects (%)
End point Type 1 event: Yes [1, 17]: 4 (67%) numbers of subjects (%)
Adjusted Hazard Ratio (95% CI), association between VNTR polymorphism and Type 1 event ([1]; Caucasians): 0.296 (0.120-0.733)
Unadjusted Hazard Ratio (95% CI), association between VNTR polymorphism and Type 1 event ([1]; Caucasians): 0.307 (0.130-0.723)
End point Type 1 event: No [1, 18]: 11 (61%) numbers of subjects (%)
End point Type 1 event: Yes [1, 18]: 7 (39%) numbers of subjects (%)
End point Type 1 event: No [1, 19]: 60 (86%) numbers of subjects (%)
End point Type 1 event: Yes [1, 19]: 10 (14%) numbers of subjects (%)
End point Type 1 event: No [1, 20]: 83 (82%) numbers of subjects (%)
End point Type 1 event: Yes [1, 20]: 18 (18%) numbers of subjects (%)
patients calculated to be poor responders ([1]; according to the SLC6A3 genotypes): about 10%
Adjusted Hazard Ratio (95% CI), association between VNTR polymorphism and Type 1 event ([1]; whole population): 0.396 (0.167-0.936)
Unadjusted Hazard Ratio (95% CI), association between VNTR polymorphism and Type 1 event ([1]; whole population): 0.342 (0.148-0.788)
patients who experienced Type 1 events at the end of study ([2]; subpopulation with the two risk factors (VNTR in 3'-UTR and exon 9 polymorphism of SLC6A3)): About 40%
patients who had Type 1 events at the end of study ([2]; subpopulation without the two risk factors (VNTR in 3'-UTR and exon 9 polymorphism of SLC6A3)): 15%
